From patent US6140353A, “N-(4-carb-amimidophenyl)glycineamide derivatives” (Hoffmann-La Roche Inc., priority 1997, dated 2000)
Where a name gives a salt, the structure may show the parent alone.

Biological target: T1, factor VIIa/tissue factor complex (Homo sapiens, UniProt P08709)
T1 construct: 9 nM of soluble factor VIIa
Experiment: Inhibition of the amidolytic activity of the factor VIIa/tissue factor complex (chromogenic peptide substrate)
Assay type: biochemical
Details: chromogenic substrate Chromozym-tPA (3.5 mM), pH 7.5, room temperature, 15 minutes incubation, 10 minutes kinetic reading
Description: The measurements were carried out on microtiter plates at room temperature. To this end, per well of the plate, 100 μl of a solution of 26 nM of tissue factor, 9 nM of soluble factor VIIa and 8 mM of calcium chloride were added to 25 μl of a solution of the inhibitor in a buffer [pH 7.5, 100 mM, comprising 0.14 M NaCl, 0.1 M N(2-hydroxyethyl)piperazine-N'-(2-ethanesulphonic acid) (HEPES), 0.5 mg/l of fatty-acid-free BSA (bovine serum albumin) and 0.05% NaN3 ]. After an incubation time of 15 minutes, the reaction was started by addition of 50 μl of chromogenic substrate Chromozym-tPA (3.5 mM, MeSO2 -D-Phe-Gly-Arg-paranitroanilide), and the hydrolysis of the substrate was followed spectrophotometrically on a kinetic microtiter plate reader over 10 minutes. Using the plot of the inhibition curves, the Ki values were determined according to the method described in Biochem. J., 55:170-171 (1953).

T1 sequence (P08709 213-466 limits assumed): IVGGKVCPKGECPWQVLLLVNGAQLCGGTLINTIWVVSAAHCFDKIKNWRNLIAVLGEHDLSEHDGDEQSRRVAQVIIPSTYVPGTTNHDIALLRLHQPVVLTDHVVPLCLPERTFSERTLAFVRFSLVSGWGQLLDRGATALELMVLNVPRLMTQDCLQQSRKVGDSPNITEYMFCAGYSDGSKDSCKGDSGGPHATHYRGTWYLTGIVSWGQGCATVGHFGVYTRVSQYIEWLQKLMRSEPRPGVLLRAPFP
T1 sequence (P08709 61-212 partner limits assumed): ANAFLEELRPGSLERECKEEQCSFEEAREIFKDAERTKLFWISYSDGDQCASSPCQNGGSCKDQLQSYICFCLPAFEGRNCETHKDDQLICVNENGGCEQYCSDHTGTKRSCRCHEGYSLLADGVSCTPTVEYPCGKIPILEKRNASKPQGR
T1 sequence (P13726 33-295 partner): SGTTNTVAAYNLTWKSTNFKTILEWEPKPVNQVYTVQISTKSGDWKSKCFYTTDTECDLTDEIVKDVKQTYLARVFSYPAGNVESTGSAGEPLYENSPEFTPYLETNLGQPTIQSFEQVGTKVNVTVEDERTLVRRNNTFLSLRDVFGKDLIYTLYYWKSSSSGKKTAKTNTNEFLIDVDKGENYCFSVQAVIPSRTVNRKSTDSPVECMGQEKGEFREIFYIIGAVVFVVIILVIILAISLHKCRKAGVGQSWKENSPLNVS

SMILES | Ki [nM]
COc1cc(C(Nc2ccc(C(=N)N)cc2)C(=O)NCc2ccccc2)ccc1OCc1ccccc1 (racemic) [Example 1, (R,S)-N-benzyl-2-(4-benzyloxy-3-methoxyphenyl)-2-(4-carbamimidoylphenylamino)acetamide hydrochloride] | 50
COc1ccc(C(Nc2ccc(C(=N)N)cc2)C(=O)NCc2ccccc2)cc1OC (racemic) [Example 2a, (R,S)-N-benzyl-2-(4-carbamimidoylphenylamino)-2-(3,4-dimethoxyphenyl)acetamide hydrochloride] | 280
COc1cc(C(Nc2ccc(C(=N)N)cc2)C(=O)NCc2ccccc2)cc(OC)c1OC (racemic) [Example 5a, (R,S)-N-benzyl-2-(4-carbamimidoylphenylamino)-2-(3,4,5-trimethoxyphenyl)acetamide hydrochloride] | 280
COc1cc(OC)cc(C(Nc2ccc(C(=N)N)cc2)C(=O)NCc2ccccc2)c1 (racemic) [Example 5b, (R,S)-N-benzyl-2-(4-carbamimidoylphenylamino)-2-(3,5-dimethoxyphenyl)acetamide hydrochloride] | 190
COc1ccc(C(Nc2ccc(C(=N)N)cc2)C(=O)NC(c2ccccc2)c2ccccc2)cc1OC (racemic) [Example 5c, (R,S)-N-benzhydryl-2-(4-carbamimidoylphenylamino)-2-(3,4-dimethoxyphenyl)acetamide hydrochloride] | 160
CCOc1ccc(C(Nc2ccc(C(=N)N)cc2)C(=O)NCc2ccccc2)cc1OCC (racemic) [Example 5d, (R,S)-N-benzyl-2-(4-carbamimidoylphenylamino)-2-(3,4-diethoxyphenyl)acetamide hydrochloride] | 110
CCOc1cc(C(Nc2ccc(C(=N)N)cc2)C(=O)NCc2ccccc2)ccc1OCc1ccccc1 (racemic) [Example 5g, (R,S)-N-benzyl-2-(4-benzyloxy-3-ethoxyphenyl)-2-(4-carbamimidoylphenylamino)acetamide hydrochloride] | 44
COc1cccc(COc2ccc(C(Nc3ccc(C(=N)N)cc3)C(=O)NCc3ccccc3)cc2OC)c1 (racemic) [Example 6, (R,S)-N-benzyl-2-(4-carbamimidoylphenylamino)-2-[3-methoxy-4-(3-methoxybenzyloxy)phenyl]) acetamide acetate] | 220
COc1cc(C(Nc2ccc(C(=N)N)cc2)C(=O)NCc2ccccc2)ccc1OCc1ccc2[nH]ccc2c1 (racemic) [Example 7e, (R,S)-N-benzyl-2-(4-carbamimidoylphenylamino)-2-[4-(1H-indol-5-ylmethoxy)-3-methoxyphenyl]acetamide acetate] | 110
COc1cc(C(Nc2ccc(C(=N)N)cc2)C(=O)NCc2ccccc2)ccc1OCc1ccc2c(c1)NCCC2 (racemic) [Example 7f, (R,S)-N-benzyl-2-(4-carbamimidoylphenylamino)-2-[3-methoxy-4-(1,2,3,4-tetrahydroquinolin-7-ylmethoxy)phenyl]acetamide acetate] | 260
COc1cc(C(Nc2ccc(C(=N)N)cc2)C(=O)NCc2ccccc2)ccc1OCCc1ccccc1 (racemic) [Example 7h, (R,S)-N-benzyl-2-(4-carbamimidoylphenylamino)-2-[3-methoxy-4-phenethyloxyphenyl)acetamide acetate] | 210
COc1cc(C(Nc2ccc(C(=N)N)cc2)C(=O)NCc2ccccc2)ccc1OCc1ccc2cnccc2c1 (racemic) [Example 7n] | 170
COc1cc(C(Nc2ccc(C(=N)N)cc2)C(=O)Nc2ccccc2)ccc1OCc1ccccc1 (racemic) [Example 7s, (R,S)-2-(4-benzyloxy-3-methoxyphenyl)-2-(4-carbamimidoylphenylamino)-N-phenylacetamide acetate] | 170
COc1cc(C(Nc2ccc(C(=N)N)cc2)C(=O)NCc2ccccc2)ccc1OCc1ccncc1 (stereo not shown) [Example 7a, N-benzyl-2-(4-carbamimidoylphenylamino)-2-[3-methoxy-4-(pyridin-4-ylmethoxy)phenyl]acetamide acetate] | 190
COc1cc(C(Nc2ccc(C(=N)N)cc2)C(=O)NCc2ccccc2)c(NS(=O)(=O)c2ccccc2)cc1OCc1ccccc1 (stereo not shown) [Example 8, 2-(2-phenylsulphonylamino-4-benzyloxy-5-methoxyphenyl)-N-benzyl-2-(4-carbamimidoylphenylamino)acetamide acetate] | 150
COc1cc(C(Nc2ccc(C(=N)N)cc2)C(=O)NCc2ccccc2)c(NS(=O)(=O)c2ccccc2)cc1O (stereo not shown) [Example 10, 2-(2-phenylsulphonylamino-4-hydroxy-5-methoxyphenyl)-N-benzyl-2-(4-carbamimidoylphenylamino)acetamide acetate] | 112
